Values of other authors, collected in patent US20090136549A1, “TRANSDERMAL PATCH CONTAINING RASAGILINE FOR TREATMENT OR PROPHYLAXIS OF NERVOUS SYSTEM DISEASE AND ITS PREPARATION PROCESS” (Chongqing Pharmaceutical Research Institute Co., Ltd., priority 2006, published 2009).

Tests used:
[1] = oral administration
patients with early PD = settings: rasagiline 2 mg/d for 1 year

reduction of blood peak concentration by eating [1]: 60%
Compound: C#CCN[C@@H]1CCc2ccccc21 [rasagiline]
mean UPDRS score lower than that of the patients administered with placebo in the last 6 months (patients with early PD): 2.29 units
mean UPDRS score lower than that of the patients administered with rasagiline 1 mg/d for 1 year (patients with early PD): 1.82 units
